Results reported in the supplement of paper PMC10307832.

Assays:
Assay in all cases: relative viability (nuclei count vs DMSO), 5 days (fraction); higher = more cells survive
BAM7 + Lapatinib = compound: CCOC1=CC=CC=C1N=NC2=C(NN(C2=O)C3=NC(=CS3)C4=CC=CC=C4)C [BAM7] + CS(=O)(=O)CCNCc1ccc(-c2ccc3ncnc(Nc4ccc(OCc5cccc(F)c5)c(Cl)c4)c3c2)o1 [Lapatinib] (partner 2 µM)
Method in brief: (§1)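 Relative viability is defined as nuclei in treated wells over nuclei in vehicle wells. Duplicate plates were run and medians reported. Lung cancer cell lines in 1536-well plates were dosed by pin tool one day after seeding, with one drug or with a fixed anchor-drug dose plus five library-drug doses (not always all listed) in √10 steps, and nuclei were counted after 5 days.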

BAM7 + Olaparib = compound: CCOC1=CC=CC=C1N=NC2=C(NN(C2=O)C3=NC(=CS3)C4=CC=CC=C4)C [BAM7] + O=C(c1cc(Cc2n[nH]c(=O)c3ccccc23)ccc1F)N1CCN(C(=O)C2CC2)CC1 [Olaparib] (partner 8 µM)
Method in brief: as §1

[1] = compound: CCn1c(-c2nonc2N)nc2c(C#CC(C)(C)O)ncc(OC[C@H]3CCCNC3)c21 + Cc1cc(Nc2cc(N3CCN(C)CC3)nc(Sc3ccc(NC(=O)C4CC4)cc3)n2)n[nH]1 [Tozasertib] (partner 0.1 µM)
Method in brief: as §1

[2] = compound: CCn1c(-c2nonc2N)nc2c(C#CC(C)(C)O)ncc(OC[C@H]3CCCNC3)c21 + Nc1ncn([C@H]2C[C@H](O)[C@@H](CO)O2)c(=O)n1 [Decitabine] (partner 2 µM)
Method in brief: as §1

| Cell Line | relative viability (BAM7 + Lapatinib; first compound 0.5 µM) | relative viability (BAM7 + Lapatinib; first compound 5 µM) | relative viability (BAM7 + Lapatinib; first compound 15.81 µM) | relative viability (BAM7 + Lapatinib; first compound 50 µM) | relative viability (BAM7 + Olaparib; first compound 0.5 µM) | relative viability (BAM7 + Olaparib; first compound 5 µM) | relative viability (BAM7 + Olaparib; first compound 15.81 µM) | relative viability (BAM7 + Olaparib; first compound 50 µM) | relative viability ([1]; first compound 0.01 µM) | relative viability ([1]; first compound 0.03162 µM) | relative viability ([1]; first compound 0.1 µM) | relative viability ([1]; first compound 0.3162 µM) | relative viability ([1]; first compound 1 µM) | relative viability ([2]; first compound 0.01 µM) | relative viability ([2]; first compound 0.03162 µM) | relative viability ([2]; first compound 0.3162 µM) | relative viability ([2]; first compound 1 µM) | relative viability ([2]; first compound 0.1 µM) |
| --- | --- | --- | --- | --- | --- | --- | --- | --- | --- | --- | --- | --- | --- | --- | --- | --- | --- | --- |
| NCI-H1793 | 0.8 | 0.636 | 0.64 | 0.93 | 0.926 | 0.882 | 0.791 | 0.95 | 0.361 | 0.421 | 0.487 | 0.343 | 0.35 | 0.478 | 0.522 | 0.534 | 0.503 | – |
| NCI-H1915 | 1.02 | 1.09 | 0.911 | 1.04 | 0.269 | 0.262 | 0.223 | 0.259 | 0.439 | 0.424 | 0.422 | 0.413 | 0.464 | 0.254 | 0.252 | 0.248 | 0.248 | 0.258 |
| NCI-H1944 | 0.894 | 0.998 | 0.842 | 0.954 | 0.345 | 0.391 | 0.326 | 0.436 | 0.287 | 0.247 | 0.266 | 0.236 | 0.249 | 0.443 | 0.415 | 0.446 | 0.448 | 0.45 |
| NCI-H1975 | 0.848 | 0.77 | – | 0.819 | 0.498 | 0.617 | 0.393 | 0.602 | 0.768 | 0.715 | 0.757 | 0.777 | 0.658 | 0.428 | 0.382 | 0.409 | 0.359 | 0.378 |
| NCI-H1993 | 0.76 | 0.915 | 0.763 | 0.906 | 0.955 | 1.08 | 0.888 | 0.98 | 0.585 | 0.591 | 0.549 | 0.609 | 0.574 | 0.534 | 0.643 | 0.63 | 0.677 | 0.599 |
| NCI-H2009 | 1.03 | 1.06 | 0.898 | 0.938 | 0.716 | 0.727 | 0.662 | 0.663 | 0.72 | 0.811 | 0.724 | 0.668 | 0.771 | 0.35 | 0.469 | 0.342 | 0.39 | 0.354 |
| NCI-H2023 | 1.05 | 0.751 | 0.737 | 1.09 | 0.475 | 0.45 | 0.363 | 0.387 | 0.339 | 0.379 | 0.341 | 0.305 | 0.343 | 0.207 | 0.202 | 0.245 | 0.236 | 0.221 |
| NCI-H2085 | 0.764 | 0.612 | 0.74 | 0.881 | 0.83 | 0.804 | 0.785 | 0.786 | 0.81 | 0.771 | 0.811 | 0.822 | 0.729 | 0.489 | 0.517 | 0.58 | 0.556 | 0.601 |
| NCI-H2087 | 1.12 | 1.17 | 1.08 | 0.934 | 0.683 | 0.685 | 0.559 | 0.456 | 0.264 | 0.258 | 0.248 | 0.259 | 0.303 | 0.327 | – | 0.208 | 0.326 | 0.283 |
| NCI-H2126 | 0.726 | 0.664 | 0.743 | 0.755 | 0.892 | 0.877 | 0.905 | 0.92 | 0.829 | 0.885 | 0.806 | 0.817 | 0.863 | 0.505 | 0.608 | 0.54 | 0.548 | 0.583 |
| NCI-H2170 | 0.264 | 0.285 | 0.258 | 0.287 | 0.497 | 0.447 | 0.439 | 0.476 | 0.769 | 0.755 | 0.778 | 0.705 | 0.733 | 0.503 | 0.445 | 0.454 | 0.53 | 0.475 |
| NCI-H2347 | 0.968 | 1.26 | 0.899 | 1.03 | 0.588 | 0.642 | 0.625 | 0.601 | 0.6 | 0.59 | – | 0.613 | 0.583 | 0.603 | 0.575 | 0.577 | 0.605 | 0.616 |
| NCI-H2405 | 1.1 | 1.26 | 1.12 | 1.1 | 0.936 | 0.936 | 0.889 | 0.908 | 0.768 | 0.806 | 0.692 | 0.71 | 0.706 | 0.782 | 0.75 | 0.692 | 0.647 | 0.721 |
| NCI-H3122 | 1.09 | 1.04 | 1.04 | 1.03 | 0.428 | 0.579 | 0.416 | 0.53 | 0.369 | 0.405 | 0.396 | 0.369 | 0.337 | 0.499 | 0.364 | 0.436 | 0.414 | 0.427 |
| PC-3 [JPC-3] | 0.425 | 0.472 | 0.427 | 0.412 | 1.12 | 1.1 | 1.06 | 0.995 | 0.847 | 0.943 | 0.833 | 0.827 | 0.859 | 0.832 | – | 0.769 | 0.78 | 0.836 |
| PC-14 | 0.334 | 0.324 | 0.309 | 0.351 | 0.305 | 0.216 | 0.161 | 0.234 | 0.587 | 0.63 | 0.687 | 0.533 | 0.716 | 0.25 | 0.2 | 0.197 | 0.29 | 0.222 |
| RERF-LC-KJ | 0.868 | 0.815 | 0.802 | 0.791 | 0.346 | 0.3 | 0.288 | 0.304 | 0.441 | 0.516 | 0.403 | 0.477 | 0.416 | 0.694 | 0.643 | 0.59 | 0.656 | 0.684 |
| SK-LU-1 | 0.78 | 1.02 | 0.846 | 0.897 | 0.463 | 0.542 | 0.444 | 0.55 | 0.335 | 0.387 | 0.349 | 0.306 | 0.344 | 0.669 | 0.639 | 0.611 | 0.574 | 0.75 |
